Common to all, as to assay: NCI tumour cell line growth inhibition, 48 h
The subject of test [1] is 786-0 renal.
Test [2] relates to COLO 205 colon.
Test [3] relates to LOX IMVI melanoma.
For test [4], the system named is MALME-3M melanoma.
Test [5] relates to MCF7 breast.
Test [6] relates to NCI/ADR-RES ovarian.
Test [7] deals with T-47D breast.
The subject of test [8] is UACC-257 melanoma.
Test [9] deals with UACC-62 melanoma.
Test [10] relates to SNB-75 CNS.

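Grown in 96-well plates, cells were treated for 48 hours with each compound at five concentrations. Insufficient inhibition: endpoint recorded as highest concentration tested. The concentration for full growth arrest is given as TGI.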

Take `CCOC(=O)c1c(OCC)[nH]c(=O)c(C(c2ccc(F)cc2)c2c(O)c(C(=O)OCC)c(OCC)[nH]c2=O)c1O`: the TGI in [1] is 39.7 µM; in test [2], 79.8 µM; in test [3], 33.1 µM; in test [4], 29.5 µM; in [5] it was 60.7 µM; in test [6], more than 100 µM. Moreover, the TGI in test [7] was 32.7 µM; in test [8], 37.3 µM; in test [9] it was 30.3 µM.

Regarding `Cc1cc2nc3c(C#N)c(-c4ccccc4)/c(=C\Nc4cccc(C(F)(F)F)c4)c(=O)n3c2cc1C`, the TGI in test [1], in [2], in test [3], in test [4], in test [5] and in test [6] was more than 100 µM each time. Also, the TGI in test [10], in [7] and in test [8] was more than 100 µM each time.

For the compound `COc1ccc2cc(C(=O)NCCc3ccccc3)ccc2c1OC`, the TGI in test [1], in test [2], in [3], in test [4], in test [5] and in [6] was more than 100 µM throughout. Also, the TGI in test [7], in test [8] and in test [9] was more than 100 µM throughout.

On to `N=C(/C=C/c1ccc(-c2cn3cc(/C=C/C(=N)N4CCOCC4)ccc3n2)cc1)N1CCOCC1`, for which the TGI in test [1], in test [2], in test [4], in [5], in test [6] and in test [10] was more than 100 µM each time. For the same compound, the TGI in test [7], in test [8] and in test [9] was more than 100 µM throughout.

For `CCc1nnc2sc(-c3ccc(-c4ccc(Cl)cc4Cl)o3)nn12`, the TGI in test [1] is more than 100 µM; in test [2], more than 100 µM; in [3], more than 100 µM; in test [4], more than 100 µM; in [6], more than 100 µM; in [10] it was 56 µM. Besides, the TGI in test [7] and in test [8] was more than 100 µM each time.

As for `CC(C)=NN/C(=N\S(=O)(=O)c1cc(Cl)c(Oc2ccc([N+](=O)[O-])cc2Cl)c(Cl)c1)Nc1ccc(Cl)cc1`, the TGI in test [1], in [2], in test [3], in test [4], in test [5] and in test [6] was more than 100 µM throughout. Moreover, the TGI in test [7], in test [8] and in test [9] was more than 100 µM each time.

`Cc1ccc(Nc2ncnc3sc(SCc4ccccc4)nc23)cc1`: the TGI in [1], in [2], in [3], in test [4], in test [5] and in test [6] was more than 100 µM in each case. Further, the TGI in test [10], in test [7] and in test [8] was more than 100 µM throughout.

With `CC(C)(C)[Si](C)(C)OCC1OC(n2ccc(=O)[nH]c2=O)C(O[Si](C)(C)C(C)(C)C)/C1=N/O` (configuration not stated), the TGI in test [1] stood at 8.23 µM; in test [2] it was 5.69 µM; in [3], 10.5 µM; in test [5] it was 27.7 µM; in test [6], 8.79 µM; in test [10], 46.1 µM. In addition, the TGI in test [7] came out at 24.2 µM; in test [8], 16.7 µM; in [9], 24.8 µM.

As for `Fc1ccc(C(=NCc2ccccc2)N2CCOCC2)cc1`, the TGI in [1], in [2], in [3], in [4], in test [5] and in test [6] was more than 100 µM throughout. In addition, the TGI in test [10], in test [8] and in test [9] was more than 100 µM each time.

Turning to `COC(=O)c1nc2c(C)c(O)c(O)c([C@H](C)CCC=C(C)C)c2o1`, the TGI was 39.5 µM in test [1]; 35.6 µM in [2]; more than 100 µM in test [3]; more than 100 µM in [4]; more than 100 µM in [5]; more than 100 µM in test [6]. For the same compound, the TGI in test [10] was 56.1 µM; in test [7] it was more than 100 µM; in [8], 78 µM.

In the case of `CC(C)(C)NCC(O)COc1cccc2[nH]c(C#N)cc12` (configuration not stated), the TGI in test [1], in [2], in test [4], in [5], in test [6] and in test [7] was more than 100 µM in each case. The TGI in test [9] is more than 100 µM.

In the case of `C#CCNC(Cc1ccccc1)C(=O)O` (configuration not stated), the TGI in test [1], in test [2], in [3], in [4], in test [6] and in [10] was more than 100 µM in each case. Besides, the TGI in [7], in test [8] and in [9] was more than 100 µM throughout.

For the compound `COC(=O)c1c(C)nc(C)c(N=O)c1-c1ccccc1C(F)(F)F`, the TGI in [1] was 31.5 µM; in test [2], more than 100 µM; in [3], 30.8 µM; in test [4], 30.2 µM; in test [5], 40.8 µM; in [6], 44.5 µM. For the same compound, the TGI was 39.5 µM in test [7], 32.8 µM in [8] and more than 100 µM in test [9].

Consider `CC1(C)COC(c2cccc(C3=NC(C)(C)CO3)c2)=N1`, for which the TGI in test [1], in [2], in [3], in test [4], in [5] and in [6] was more than 100 µM in each case. In addition, the TGI in test [7], in [8] and in [9] was more than 100 µM in each case.

`CCC1=C(C)C2=NC1=CC1=NC(=C(CC)/C1=C/O)C=C1N=C3C(=C1C)C(=O)C(C(=O)OC)C3=C1NC(=C2)C(C)C1CCC(=O)OC` (configuration not stated): the TGI in test [1], in test [2], in test [3], in test [4], in [5] and in test [10] was more than 100 µM in each case. For the same compound, the TGI in test [7], in test [8] and in [9] was more than 100 µM in each case.
